{"source": "patent US8133893B2", "about": "“Trazodone and trazodone hydrochloride in purified form” (Aziende Chimiche Riunite Angelini Francesco A.C.R.A.F. …, priority 2007, dated 2012)", "key": {"[1]": {"conditions": "as reported in TOXNET, National Library of Medicine; cited from earlier work"}, "[2]": {"tested_on": "Salmonella typhimurium strain TA1535", "assay": "bacterial reverse mutation test (standard plate incorporation assay)", "format": "cell-based", "method": "The genotoxic activity of N-(3-chlorophenyl)-N′-(3-chloropropyl)-piperazine has been assessed on histidine-dependent auxotrophic mutants of Salmonella typhimurium strains TA1535, TA1537, TA 98 and TA100, and on tryptophan-dependent mutants of Escherichia coli strain WP2 uvrA (pKM101), exposed to a solution of N-(3-chlorophenyl)-N′-(3-chloropropyl)-piperazine in dimethylsulphoxide (DMSO) and using DMSO as negative control. Two independent mutation tests were performed, both in the presence and absence of a liver microsomal fraction (S9 mix) of rat treated with phenobarbital and 5,6-benzoflavone. Tests were standard plate incorporation assays and performed according to the current regulatory guidelines. A substantial increase in reversion to prototrophy was obtained on strain TA1535 in the presence of S9 mix. In the two assays the increase was concentration related and reached, following exposure to 1500 μg per plate of N-(3-chlorophenyl)-N′-(3-chloropropyl)-piperazine, 6.4 and 5.1 times the control value."}}, "note": "Values joined by “and” are separate entries in the source; they are usually repeats but may differ in a detail not shown here. Equal values may be shown once."}
{"compound": "2,2-Dichloroethylamine", "values": [{"measurement": "genotoxicity", "setting": "[1]", "result": "known genotoxic substances"}]}
{"compound": "ClCCCN1CCN(c2cccc(Cl)c2)CC1", "note": "[N-(3-chlorophenyl)-N′-(3-chloropropyl)-piperazine]", "values": [{"measurement": "genotoxic activity (conclusion)", "setting": "[2]; bacterial system, following metabolic activation (S9 mix)", "result": "exhibited genotoxic activity"}, {"measurement": "increase in reversion to prototrophy", "setting": "[2]; strain TA1535, in the presence of S9 mix (rat liver microsomal fraction), 1500 μg per plate, two independent assays, DMSO negative control", "result": "6.4 times the control value and 5.1 times the control value"}]}
